In article PMC9021288 (Nature Communications, 2022):
Several values for one entry are separate records, joined by “and”; a condition that tells them apart may be missing. Identical values can stand only once.

How the values were obtained:
[1] = 7-day Maximum Tolerated Dose 1 (MTD1) rat study; format: in vivo, Wistar Han rats; set-up: AUC(0 - t) / Cmax / Urea / Glucose / Triglycerides: unit not given here; conditions: for Concentration: MTD1 males, Day 7, 600 mg/kg/day; for Liver weight: MTD1 study, individual animals; for Triglycerides / Urea / Glucose: Male
Text: (§1) See the summary of the study design in Supplementary Table 31. Nine-week-old Wistar (Crl:WI (Han)) rats were obtained from Charles River Laboratories (Domaine des Oncins, Saint-Germain-Nuelles, France). […] Animals were examined daily for any altered clinical signs, body weights, and food consumption. Blood samples were taken at different timepoints after the test item administration, and toxicokinetic exposure assessed under the defined experimental conditions and analyzed using Phoenix (version 6.4 and 1.4) (Supplementary Table 32). Measurements included hematology and clinical chemistry measurements. Animals were euthanized and necropsied at the end of the dosing period. At necropsy, major organ systems and tissues were collected and weighed and then examined for gross lesions as well as for microscopic changes.

[2] = 7-day PK toxicity rat study; format: in vivo, Wistar Han rats; set-up: AUC(0 - t) / Cmax / Concentration (PK study): unit not given here
Text: as §1

C[C@@H](CNC(=O)[C@H](O)C(C)(C)CO)NC(=O)c1cc(F)c(F)cc1F [MMV693183]
Concentration ([1]; 4 h): 4.9 µM and 5.09 µM
Concentration ([1]; 24 h): LLOQ
Liver weight ([1]; females, 60 mg/kg/day): 4.84 g and 4.87 g
Liver weight ([1]; females, 200 mg/kg/day): 6.04 g and 5.86 g
Liver weight ([1]; females, 600 mg/kg/day): 6.96 g
Liver weight ([1]; males, 60 mg/kg/day): 8.13 g and 7.71 g
Liver weight ([1]; males, 200 mg/kg/day): 7.63 g and 8.4 g
Liver weight ([1]; males, 600 mg/kg/day): 11.11 g and 12.08 g
Triglycerides ([1]; 60 mg/kg): 0.56 and 0.92 and 0.69
Urea ([1]; 60 mg/kg): 6.5 and 7.4 and 9.1
Glucose ([1]; 60 mg/kg, 7 days, per rat): 7.28 and 9.9 and 8.53
Glucose ([1]; 200 mg/kg): 7.64 and 9.24 and 10.45
Triglycerides ([1]; 200 mg/kg): 0.58 and 0.71 and 0.55
Urea ([1]; 200 mg/kg): 8.3 and 8.1 and 9.4
Glucose ([1]; 600 mg/kg): 5.54 and 8.3 and 8.46
Triglycerides ([1]; 600 mg/kg): 0.57 and 0.62 and 0.56
Urea ([1]; 600 mg/kg): 9.5 and 9.2 and 8.3
increase in liver weight ([1]; males, 600 mg/kg/day): up to 71%
hematological and clinical chemistry parameters ([1]; rat, in vivo): no significant treatment-related deviations
mortality ([2]; 60, 200 mg/kg/day, 7 days): no mortality occurred
Liver weight ([2]; PK 60 mg/kg/day, Females): 6.5972 g
Liver weight ([2]; PK 60 mg/kg/day, Males): 11.4290 g
Liver weight ([2]; PK 200 mg/kg/day, Females): 8.4371 g
Liver weight ([2]; PK 200 mg/kg/day, Males): 13.5439 g
Concentration (PK study) ([2]; PK study, Females 60 mg/kg/day, Day 4, 8 hr): 867 and 896 and 826
Concentration (PK study) ([2]; PK study, Females 60 mg/kg/day, Day 5, 8 hr): 531 and 997 and 950
Concentration (PK study) ([2]; PK study, Females 60 mg/kg/day, Day 6, 8 hr): 642 and 776
Concentration (PK study) ([2]; PK study, Females 60 mg/kg/day, Day 7, 8 hr): 936 and 1060 and 1050
Concentration (PK study) ([2]; PK study, Females 200 mg/kg/day, Day 1, 0.5 hr): 81400 and 80500 and 68400
Concentration (PK study) ([2]; PK study, Females 200 mg/kg/day, Day 1, 1 hr): 65500 and 65700 and 66800
Concentration (PK study) ([2]; PK study, Females 200 mg/kg/day, Day 1, 4 hr): 12200 and 17800 and 10500
Concentration (PK study) ([2]; PK study, Females 200 mg/kg/day, Day 3, 0.5 hr): 70400 and 75700 and 61100
Concentration (PK study) ([2]; PK study, Females 200 mg/kg/day, Day 3, 2 hr): 18000 and 10900 and 12000
Concentration (PK study) ([2]; PK study, Females 200 mg/kg/day, Day 3, 8 hr): 2420 and 2030 and 1670
Concentration (PK study) ([2]; PK study, Females 200 mg/kg/day, Day 4, 0.5 hr): 47900 and 69400 and 35700
Concentration (PK study) ([2]; PK study, Females 200 mg/kg/day, Day 4, 8 hr): 1340 and 729 and 914
Concentration (PK study) ([2]; PK study, Females 200 mg/kg/day, Day 4, 24 hr): LLoQ
Concentration (PK study) ([2]; PK study, Females 200 mg/kg/day, Day 5, 2 hr): 3640 and 1960 and 3540
Concentration (PK study) ([2]; PK study, Females 200 mg/kg/day, Day 5, 24 hr): LLoQ
Concentration (PK study) ([2]; PK study, Females 200 mg/kg/day, Day 6, 0.5 hr): 17200 and 19900 and 13800
Concentration (PK study) ([2]; PK study, Females 200 mg/kg/day, Day 6, 1 hr): 5360 and 3620 and 4830
Concentration (PK study) ([2]; PK study, Females 200 mg/kg/day, Day 6, 2 hr): 2060 and 2560
Concentration (PK study) ([2]; PK study, Females 200 mg/kg/day, Day 6, 4 hr): 1070 and 1300 and 1240
Concentration (PK study) ([2]; PK study, Females 200 mg/kg/day, Day 6, 24 hr): LLoQ
Concentration (PK study) ([2]; PK study, Females 200 mg/kg/day, Day 7, 0.5 hr): 16600 and 15200 and 10900
Concentration (PK study) ([2]; PK study, Females 200 mg/kg/day, Day 7, 1 hr): 7160 and 4910 and 4560
Concentration (PK study) ([2]; PK study, Females 200 mg/kg/day, Day 7, 8 hr): 446 and 524 and 294
Concentration (PK study) ([2]; PK study, Females 200 mg/kg/day, Day 7, 24 hr): LLoQ
Concentration (PK study) ([2]; PK study, Males 60 mg/kg/day, Day 1, 1 hr): 20300 and 24600 and 25700
Concentration (PK study) ([2]; PK study, Males 60 mg/kg/day, Day 1, 2 hr): 8920
Concentration (PK study) ([2]; PK study, Males 60 mg/kg/day, Day 1, 8 hr): 595 and 761 and 549
Concentration (PK study) ([2]; PK study, Males 60 mg/kg/day, Day 3, 0.5 hr): 8790 and 10300 and 7140
Concentration (PK study) ([2]; PK study, Males 60 mg/kg/day, Day 3, 1 hr): 5740 and 6580 and 9120
Concentration (PK study) ([2]; PK study, Males 60 mg/kg/day, Day 4, 1 hr): 4970 and 6410 and 5310
Concentration (PK study) ([2]; PK study, Males 60 mg/kg/day, Day 4, 2 hr): 2150
Concentration (PK study) ([2]; PK study, Males 60 mg/kg/day, Day 5, 0.5 hr): 4090 and 5780 and 6430
Concentration (PK study) ([2]; PK study, Males 60 mg/kg/day, Day 5, 1 hr): 2810 and 3810 and 4490
Concentration (PK study) ([2]; PK study, Males 60 mg/kg/day, Day 5, 2 hr): 833
Concentration (PK study) ([2]; PK study, Males 60 mg/kg/day, Day 6, 0.5 hr): 3190 and 3990 and 2700
Concentration (PK study) ([2]; PK study, Males 60 mg/kg/day, Day 6, 1 hr): 2440 and 2560 and 2960
Concentration (PK study) ([2]; PK study, Males 60 mg/kg/day, Day 6, 2 hr): 793
Concentration (PK study) ([2]; PK study, Males 60 mg/kg/day, Day 7, 0.5 hr): 4630 and 4120 and 3030
Concentration (PK study) ([2]; PK study, Males 60 mg/kg/day, Day 7, 1 hr): 2360 and 3070 and 4490
Concentration (PK study) ([2]; PK study, Males 60 mg/kg/day, Day 7, 2 hr): 852
Liver weight ([2]; PK study, females, 60 mg/kg/day, individual animals): 7.845 g and 6.555 g and 7.19 g and 6.045 g and 7.197 g and 6.726 g and 6.103 g and 6.171 g and 6.163 g and 5.278 g and 7.062 g and 7.17 g and 6.744 g and 6.318 g and 6.169 g and 6.575 g and 6.983 g and 6.456 g
Liver weight ([2]; PK study, females, 200 mg/kg/day, individual animals): 8.221 g and 8.493 g and 7.964 g and 8.859 g and 9.347 g and 7.27 g and 8.193 g and 8.745 g and 8.636 g and 8.349 g and 8.711 g and 8.055 g and 7.728 g and 8.238 g and 8.802 g and 8.338 g and 9.482 g
Liver weight ([2]; PK study, males, 60 mg/kg/day, individual animals): 11.319 g and 10.601 g and 11.37 g and 12.154 g and 11.768 g and 12.437 g and 11.213 g and 11.313 g and 11.86 g and 10.827 g and 10.923 g and 10.921 g and 10.76 g and 12.104 g and 11.841 g and 10.238 g and 12.991 g and 11.082 g
Liver weight ([2]; PK study, males, 200 mg/kg/day, individual animals): 14.027 g and 16.129 g and 13.438 g and 12.573 g and 14.48 g and 14.447 g and 11.375 g and 14.317 g and 13.757 g and 13.38 g and 14.677 g and 13.312 g and 12.998 g and 12.7 g and 12.791 g and 13.174 g and 13.587 g and 12.628 g
decrease of exposure at later timepoints ([2]; day 3 to day 7 vs day 1): up to 11 fold
Increased mitoses, hepatocellular: animals affected ([2]; in order: females 60, 200 mg/kg/day): 1
Hypertrophy, centrilobular: animals affected ([2]; in order: males 60, 200 (n=18), females 60 (n=18), 200 (n=17) mg/kg/day): 18 and 14 and 17
Extramedullary hematopoiesis: animals affected ([2]; in order: males 60, 200, females 60, 200 mg/kg/day): 10 and 14 and 9 and 13
Necrosis, hepatocellular: animals affected ([2]; in order: males 60, females 60, 200 mg/kg/day): 1
